Each structure is given as a SMILES string.

Here are results for six compounds from article PMC3264828 (European Journal of Medicinal Chemistry, 2011).

The test system of experiment [1] is D1. To be noted: 2-substituted DHX analogues; cited from earlier work.
Experiment [2] addresses D1 dopamine receptor mutant L190A (Homo sapiens, UniProt P21728, L190A). The experiment in a line: Mutagenesis experiments of the D1 dopamine receptor. The class given is binding. As to conditions: residue in extracellular loop 2; to be published elsewhere.
Experiment [3] addresses D1-like receptors (Sus scrofa, UniProt P50130). The experiment can be described thus: Competition binding with [3H]SCH-23390 in porcine striatal homogenates. To be noted: porcine striatal preparations; for decrease in D1 affinity compared to 2: relative to DOX (2).
For experiment [4], the system named is aged monkeys. As to conditions: cited from earlier work.
The test system of experiment [5] is prefrontal cortex. To be noted: cited from earlier work.
The test system of experiment [6] is D1 receptor. As to conditions: cited from earlier work.
For experiment [7], the system named is in vivo model of Parkinson's disease. As to conditions: African green monkeys; cited from earlier work.
Experiment [8] deals with D1-like receptors. To be noted: cited from earlier work.

Sequence of D1-like receptors (Sus scrofa, UniProt P50130) (P50130 whole entry): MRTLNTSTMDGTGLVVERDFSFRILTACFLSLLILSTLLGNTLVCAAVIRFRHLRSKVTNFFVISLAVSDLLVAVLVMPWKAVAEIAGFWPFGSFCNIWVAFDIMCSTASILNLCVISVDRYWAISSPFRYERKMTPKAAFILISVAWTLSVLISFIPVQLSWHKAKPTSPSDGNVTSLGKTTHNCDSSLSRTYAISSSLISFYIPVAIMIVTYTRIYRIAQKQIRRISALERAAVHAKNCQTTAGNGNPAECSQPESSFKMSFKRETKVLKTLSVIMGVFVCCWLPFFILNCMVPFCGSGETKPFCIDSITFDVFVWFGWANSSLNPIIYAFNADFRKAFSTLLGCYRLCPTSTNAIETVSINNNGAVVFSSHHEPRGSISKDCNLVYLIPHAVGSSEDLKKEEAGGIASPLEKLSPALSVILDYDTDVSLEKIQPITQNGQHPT
Sequence of D1 dopamine receptor mutant L190A (P21728 whole entry L190A): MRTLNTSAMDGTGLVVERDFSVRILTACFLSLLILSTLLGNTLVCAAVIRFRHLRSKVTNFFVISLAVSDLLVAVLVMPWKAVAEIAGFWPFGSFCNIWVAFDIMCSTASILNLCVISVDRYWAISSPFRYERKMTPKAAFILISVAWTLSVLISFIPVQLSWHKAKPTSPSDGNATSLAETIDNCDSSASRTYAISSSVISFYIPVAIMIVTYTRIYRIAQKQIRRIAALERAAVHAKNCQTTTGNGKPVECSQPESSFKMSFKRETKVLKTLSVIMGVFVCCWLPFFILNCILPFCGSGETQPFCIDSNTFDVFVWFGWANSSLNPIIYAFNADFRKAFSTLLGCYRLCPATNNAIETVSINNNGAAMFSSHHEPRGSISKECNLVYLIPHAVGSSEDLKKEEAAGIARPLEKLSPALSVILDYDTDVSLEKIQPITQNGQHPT

`Cc1ccc2c(c1)[C@@H]1c3cc(O)c(O)cc3CC[C@H]1NC2` [compound 3]: in experiment [1], the “D1 affinity in comparison to DHX” value is on record as “did not significantly reduce the affinity”. Also, the “affinity at mutant L190A of the D1 dopamine receptor” value in experiment [2] was “but not for 3”.
`CCc1ccc2c(c1)[C@@H]1c3cc(O)c(O)cc3CC[C@H]1NC2` [compound 4]: in experiment [1], the “D1 affinity in comparison to DHX” value is reported as “affinity lower than the unsubstituted compound”.
As to `Cl.Oc1cc2c(cc1O)[C@H]1c3cc(C(F)(F)F)ccc3CN[C@@H]1CO2` (racemic) [5d, (±)-Trans-2,3-dihydroxy-11-trifluoromethyl-6a,7,8,12b-tetrahydro-6H-chromeno[3,4-c]isoquinoline hydrochloride], the “decrease in D1 affinity compared to the methyl substituted compound 5a” value in experiment [3] (relative to 5a) is reported as “almost four-fold decrease”. For the same compound, the “decrease in D1 affinity compared to 2” value in experiment [3] stood at 22 fold.
For `Oc1cc2c(cc1O)[C@H]1c3ccccc3CN[C@@H]1CC2` (relative stereo) [compound 1, trans-10,11-dihydroxy-5,6,6a,7,8,12b-hexahydrobenzo[a]phenanthridine], in experiment [4], the working memory entry is listed as “improve working memory in aged monkeys”. Besides, the “blood flow in the prefrontal cortex” value in experiment [5] is “increase blood flow in the prefrontal cortex”. Also, the “dopamine D1 agonist character” value in experiment [6] is recorded as “potent dopamine D1 full agonist”. For the same compound, the “therapeutic potential in an in vivo model of Parkinson's disease” value in experiment [7] is on record as “significant therapeutic potential”. In experiment [8], the “affinity for D1-like receptors over D2-like receptors” value is recorded as “ten-fold higher affinity”.
With `Oc1cc2c(cc1O)C1c3ccccc3CNC1CO2` (single isomer, unassigned; (+)) [(+)-2], the “efficacy for activation of the D1 receptor” value in experiment [6] (compared with dopamine) is “higher efficacy than dopamine”.
Turning to `Cc1ccc2c(c1)[C@@H]1c3cc(O)c(O)cc3OC[C@H]1NC2.Cl` (racemic) [5a, (±)-Trans-11-methyl-2,3-dihydroxy-6a,7,8,12b-tetrahydro-6H-chromeno[3,4-c]isoquinoline hydrobromide], the “affinity at mutant L190A of the D1 dopamine receptor” value in experiment [2] is listed as “significantly increased affinity”. For the same compound, the “decrease in D1 affinity compared to 2” value in experiment [3] is “nearly six-fold decrease”.
